Target: recombinant human CL receptor/RAMP1 (Homo sapiens (Human), UniProt O60894+Q16602)
Experiment: Recombinant receptor binding assay (125I-hCGRP displacement, membranes of HEK 293 cells)
Conditions: membranes of HEK 293 cells expressing human CL receptor/RAMP1
Procedure: RECOMBINANT RECEPTOR: Human CL receptor (Genbank accession number L76380) was subcloned into the expression vector pIREShyg2 (BD Biosciences Clontech) as a 5′NheI and 3′PmeI fragment. Human RAMP1 (Genbank accession number AJ001014) was subcloned into the expression vector pIRESpuro2 (BD Biosciences Clontech) as a 5′NheI and 3′NotI fragment. HEK 293 cells (human embryonic kidney cells; ATCC #CRL-1573) were cultured in DMEM with 4.5 g/L glucose, 1 mM sodium pyruvate and 2 mM glutamine supplemented with 10% fetal bovine serum (FBS), 100 units/mL penicillin and 100 μg/mL streptomycin, and maintained at 37° C. and 95% humidity. Cells were subcultured by treatment with 0.25% trypsin with 0.1% EDTA in HBSS. Stable cell line generation was accomplished by co-transfecting 10 μg of DNA with 30 μg Lipofectamine 2000 (Invitrogen) in 75 cm^2 flasks. CL receptor and RAMP1 expression constructs were co-transfected in equal amounts. Twenty-four hours after transfection the cells were diluted and selective medium (growth medium+300 μg/mL hygromycin and 1 μg/mL puromycin) was added the following day. A clonal cell line was generated by single cell deposition utilizing a FACS Vantage SE (Becton Dickinson). Growth medium was adjusted to 150 μg/mL hygromycin and 0.5 μg/mL puromycin for cell propagation.
RECOMBINANT RECEPTOR BINDING ASSAY: Cells expressing recombinant human CL receptor/RAMP1 were washed with PBS and harvested in harvest buffer containing 50 mM HEPES, 1 mM EDTA and Complete protease inhibitors (Roche). The cell suspension was disrupted with a laboratory homogenizer and centrifuged at 48,000 g to isolate membranes. The pellets were resuspended in harvest buffer plus 250 mM sucrose and stored at −70° C. For binding assays, 20 μg of membranes were incubated in 1 ml binding buffer (10 mM HEPES, pH 7.4, 5 mM MgCl2, and 0.2% BSA) for 3 hours at room temperature containing […] ^125I-hCGRP (GE Healthcare) and antagonist. The assay was terminated by filtration through 96-well GFB glass fiber filter plates (PerkinElmer) that had been blocked with 0.05% polyethyleneimine. The filters were washed 3 times with ice-cold assay buffer (10 mM HEPES, pH 7.4 and 5 mM MgCl2). Scintillation fluid was added and the plates were counted on a Topcount (Packard). Non-specific binding was determined and the data analysis was carried out with the apparent dissociation constant (Ki) determined by using a non-linear least squares fitting the bound CPM data to the equation below:
[formula] Where Y is observed CPM bound, Ymax is total bound counts, Ymin is non specific bound counts, (Ymax−Ymin) is specific bound counts, % Imax is the maximum percent inhibition, % I min is the minimum percent inhibition, radiolabel is the probe, and the Kd is the apparent dissociation constant for the radioligand for the receptor as determined by Hot saturation experiments.

Sequence of recombinant human CL receptor/RAMP1 (Q16602 23-461): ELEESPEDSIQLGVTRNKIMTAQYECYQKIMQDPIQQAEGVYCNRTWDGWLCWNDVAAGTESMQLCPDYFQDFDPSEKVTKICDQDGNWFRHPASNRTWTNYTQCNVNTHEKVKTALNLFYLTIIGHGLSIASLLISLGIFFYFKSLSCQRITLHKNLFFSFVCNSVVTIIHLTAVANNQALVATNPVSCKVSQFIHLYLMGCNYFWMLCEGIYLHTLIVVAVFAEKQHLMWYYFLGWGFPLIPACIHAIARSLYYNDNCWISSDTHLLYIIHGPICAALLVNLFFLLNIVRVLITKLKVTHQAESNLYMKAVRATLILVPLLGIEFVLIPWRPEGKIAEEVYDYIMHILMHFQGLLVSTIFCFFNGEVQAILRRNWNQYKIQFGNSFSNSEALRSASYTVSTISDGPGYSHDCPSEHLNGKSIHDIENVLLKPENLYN
Sequence of recombinant human CL receptor/RAMP1 (O60894 27-148): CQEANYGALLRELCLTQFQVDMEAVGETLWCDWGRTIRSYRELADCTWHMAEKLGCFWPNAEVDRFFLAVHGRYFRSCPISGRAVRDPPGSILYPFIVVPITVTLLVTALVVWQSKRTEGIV

| Compound | Ki [nM] |
| --- | --- |
| CC(C)N1C(=O)N(Cc2cnc3cc4c(cc3c2)C[C@@]2(C4)C(=O)Nc3ncccc32)C2(CCCc3ccccc32)C1=O (stereo partly shown) [Example 5] | 0.057 |
| O=C1N(Cc2cnc3cc4c(cc3c2)C[C@@]2(C4)C(=O)Nc3ncccc32)[C@H](c2cc(F)cc(F)c2)CCNC12CCCC2 [Example 15] | 0.49 |
| O=C1N(Cc2ccc3nc4c(cc3c2)C[C@@]2(C4)C(=O)Nc3ncccc32)[C@H](c2cc(F)cc(F)c2)CCNC12CCCC2 [Example 16] | 0.89 |
| O=C1NCCN(Cc2cnc3cc4c(cc3c2)C[C@@]2(C4)C(=O)Nc3ncccc32)C1c1ccc(F)cc1 (stereo partly shown) [Example 17] | 57 |
| O=C1N(Cc2cnc3cc4c(cc3c2)C[C@@]2(C4)C(=O)Nc3ncccc32)C(c2ccccc2Cl)=NC12CCCC2 [Example 10] | 1.3 |
| CC(C)N1C(=O)N(Cc2cnc3cc4c(cc3c2)C[C@@]2(C4)C(=O)Nc3ncccc32)C(C)(c2ccccc2)C1=O (stereo partly shown) [Example 12] | 0.28 |
| O=C1N(Cc2cnc3cc4c(cc3c2)C[C@@]2(C4)C(=O)Nc3ncccc32)[C@H](c2cc(F)cc(F)c2)CNC12CCCC2 [Example 8] | 0.14 |
| CC(C)N1C(=O)N(Cc2cnc3cc4c(cc3c2)C[C@@]2(C4)C(=O)Nc3ncccc32)C2(CCCCCC2)C1=O [Example 6] | 0.34 |
| CN1C[C@@](C)(c2cc(F)cc(F)c2)N(Cc2cnc3cc4c(cc3c2)C[C@@]2(C4)C(=O)Nc3ncccc32)C(=O)C12CCCC2 [Example 13] | 0.062 |
| O=C1N(Cc2cnc3cc4c(cc3c2)C[C@@]2(C4)C(=O)Nc3ncccc32)[C@H](c2cc(F)cc(F)c2)CCC12CCCC2 [Example 9] | 0.77 |
